Measurements from patent publication US20250177367A1, “COMBINATION THERAPIES FOR MODULATION OF LIPID PRODUCTION” (Ohio State Innovation Foundation, priority 2022, published 2025).
Entries after “also recorded” stand apart in the source; their conditions may differ.

Assays:
SREBP-1/2 cleavage = assay: Western blot of SREBP cleavage and FASN/SCD1 expression in GBM cells; assay type: cell-based, human; conditions: for pimozide-stimulated SREBP-1 activation, FASN/SCD1 and ASCT2 expression: with pimozide 5 μM, 24 hr, GBM30, U373 or U251
Protocol: P, precursor of SREBP; N, N-terminus of SREBP-1. C, C-terminus of SREBP-2.
4 mM glutamine and […] pyruvate.
(§1) Western Blot. Cells were lysed with RIPA buffer containing a protease inhibitor cocktail and phosphatase inhibitors. The proteins were separated on 12% SDS-PAGE, and transferred onto an ECL nitrocellulose membrane (#1620112, Bio-Rad). After blocking for 1.5 hr in 5% non-fat dried milk diluted by Tris-buffered saline containing 0.1% Tween 20, the membranes were incubated with various primary antibodies, followed by appropriate secondary antibodies conjugated to horseradish peroxidase.

H1299 and U87 cells = assay: Ammonia, glutamate and α-KG levels after GPNA or CB-839; assay type: cell-based; conditions: for levels of glutamate, ammonia, and α-KG in cells and in cell culture media: GPNA 5 mM or CB-839 100 nM, 12 hr; for glutamine consumption: H1299 and U87 cells
Protocol: The results are presented as mean±SEM (n=3). H1299 or U87 cells were cultured in RMPI 1640 or DMEM medium supplemented with 5% FBS for 24 hr. Cells then were washed with PBS once and treated with/without GPNA (5 mM) or CB-839 (100 nM) in the presence of glutamine (4 mM) and glucose (5 mM) under the fresh serum-free RMPI 1640 or DMEM medium for 12 hr before analysis. Cell culture conditions prior to treatment are the same for the subsequent panels unless otherwise stated.
Analysis of Metabolites in Cell Culture Medium. Metabolite levels in culture medium, including glucose, glutamine, lactate, glutamate, and NH4+, were measured using the Nova Bioprofile 100 Plus Bioanalyzer (Nova Biomedical). H1299 (4×105) or U87 (3×105) cells were seeded in 60 mm dish for 24 hr. After the cells were washed with PBS, they were switched to 2.5 ml serum-free medium with glucose (5 mM) and glutamine (4 mM) for 12 hr. The culture or control media (without cultured cells) were centrifuged at 12,000 rpm for 1 min and run on the bioanalyzer. Cell numbers were determined by using a hemocytometer after trypan blue staining. Consumption of glucose and glutamine or production of lactate, glutamate, and NH4+ under each experimental condition was calculated by subtracting their levels in control medium and normalizing to cell numbers.
(§2) Measures of Ammonia Levels in Tissues, Cells and bound to SCAP. To measure ammonia levels in tumors and normal tissues, 10 mg of tissues were collected and lysed through homogenization on ice in the ammonia assay buffer (100 l) from the commercial kit. The lysates were centrifuged at 20,000×g for 5 min at 4° C. and the ammonia levels in the supernatants were measured by the ammonia assay kit following the manufacturer's instructions (#ab83360, Abcam). For measurement of SCAP-bound ammonia, a total of 1.3×10^7 HEK293T cells was seeded in 15 cm dishes for 24 hr. The cells were transfected with GFP, GFP-SCAP wild-type, or D428A mutant together with myc-Insig1 plasmids for 24 hr, and then washed with PBS, followed by addition of fresh DMEM medium containing glucose (5 mM) and NH4Cl (4 mM) for 2 hr in the absence of glutamine. […]

SREBP activation = assay: Western blot of GBM30 cells treated with CB-839 with glutamine, glutamate or NH4Cl; assay type: cell-based, human; conditions: 12 hr
Protocol: as §1

[1] = system: H1299 cells-derived xenograft; assay: H1299-derived xenograft mouse model treated with CB-839; assay type: in vivo, mice; conditions: CB-839 30 mg/kg, i.p., twice per day for 3 days
Protocol: The treatment started when the tumor size reached 200 mm^3. […] Scale bars, 50 m. The expression levels were quantified by using ImageJ to analyze 4 images per tumor and 3 tumors in each group.
as §2

U251 cells [2] = assay: Confocal imaging of mitochondria and ROS (MitoTracker / CellROX Deep Red); assay type: cell-based; conditions: GSH 3 mM
Protocol: ROS levels were quantified in more than 100 cells (mean±SEM). Sp<0.0001. Scale bar, 10 μm.
DON (10 μM) or CB-839 (I00 nM) in combination as in (A) in the presence or absence of PA (palmitate, 20 μM) and OA (oleic acid, 20 μM) and cholesterol (3 μg/ml) for 24 hr.

U251 cells [3] = assay: Micrographs of U251 cell growth; assay type: cell-based; conditions: GSH 3 mM, 48 hr
Protocol: DON (10 μM) or CB-839 (100 nM) alone or in combination as in (A) in the presence or absence of GSH (3 mM) for 48 hr.
Micrographs show the growth of U251 cells treated with/without pimozide (2, 3 μM), perphenazine (3, 5 μM), GPNA (1 mM), or CB-839 (100 nM). Cells were cultured in 5% FBS full medium for 24 hr. Cells were then washed with PBS twice and treated in 1% FBS with the presence of 5 mM Glucose, 4 mM Glutamine and 1 mM Pyruvate in fresh serum-free medium for 48 hr. Scale bar, 100 μm.

SREBP-1 and -2 cleavage = assay: SREBP activation by metabolites in H1299 or U87 cells (western blot, IF); assay type: cell-based; conditions: for SREBP-1 translocation into the nucleus: in the presence of glucose, without glutamine, 12 hr
Protocol: FIG. 1C show the western blot analysis of whole lysates from H1299 or U87 cells after NH4Cl stimulation at the indicated doses for 12 hr. in the presence of glucose (5 mM) under serum-free culture conditions.
Nuclei were stained with DAPI (blue). Scale bars, 10 m. The nuclear intensity of SREBP-1 was quantified over 30 cells by ImageJ (mean±SEM) and shown below. Significance was determined by unpaired Student's t test. *p<0.05, ^sp<0.001, #p<0.0001; N.S. not significant.
as §1, with “The proteins were separated on 12% SDS-PAGE, and transferred onto an ECL nitrocellulose membrane (#1620112, Bio-Rad).” left out
Immunofluorescence. Cells grown on coverslips were washed with PBS twice and fixed with 4% formaldehyde for 15 min, then permeabilized with 0.1% Triton X-100/PBS for 5 min and blocked by 3% bovine serum albumin for 30 min at room temperature. […] Cells were washed three times with PBS in a dark chamber.

ASCT2 = ASCT2 expression (western blot of membrane extracts, immunofluorescence); assay type: cell-based, human; conditions: pimozide 5 μM with cholesterol 3 μg/ml, 24 hr
Text: Transferring receptor-1(CD71), an integral membrane protein that mediates the uptake of transferrin-iron complexes, was used as a membrane loading control for ASCT2. […] Nuclei were stained with DAPI (blue).

[4] = system: normal human astrocytes (NHA); assay: Effect of PMZ on normal human astrocytes; assay type: cell-based; conditions: doses up to 10 μM, 6 days
Protocol: Statistical significance was analyzed by one-way ANOVA.

GBM30-derived xenograft [5] = conditions: mouse, in vivo
Protocol: (§3) Mice were implanted with 3×10^6 GBM30 cells in flank. When tumor volume reached to 80 mm^3, pimozide (15, 30, 60 mg/kg/day) or vehicles were administered to mice via intraperitoneal injection for 14 days.
(§4) GBM30 cells were implanted in mice to form tumor same as FIG. 12A. Mice were started treatment when tumor volume reached to ˜80 mm^3 by pimozide (15 mg/kg/day) and fatostatin (25 mg/kg/day) alone or combination for 16 days. The tumors were isolated from mice at day 14 post-treatment and imaged. Data are shown as mean±SD (n=6).
(§5) Data are shown as mean±SD(n=6). Significance was determined by one-way ANOVA with Dunnett's multiple comparisons adjustment. *p<0.002. Tumor diameter was measured using vernier caliper and calculated as V=L×S×S/2 (S refers to short diameter, L means long diameter, V is tumor volume).
(§6) Mice were implanted with 3×10^6 GBM30 cells in flank. When tumor volume reached to ˜80 mm^3, pimozide (15 mg/kg/day), GPNA (50 mg/kg/day), DON (0.2 mg/kg/day), or CB-839 (25 mg/kg/day) alone or in combination were administered to mice via intraperitoneal injection for 14 days.
(§7) Data are shown as mean±SEM (n=6). Significance was determined by one-way ANOVA with Dunnett's multiple comparisons adjustment. *p<0.002.

GBM30-derived xenograft [6] = assay: GBM30-derived flank xenograft model; conditions: 60 mg/kg dose
Protocol: as §3, §4, §5, §6, §7

## O=C(Cc1cccc(OC(F)(F)F)c1)Nc1ccc(CCCCc2nnc(NC(=O)Cc3ccccn3)s2)nn1 [CB-839, telaglenastat]
SREBP-1/2 cleavage
  pimozide-stimulated SREBP-1 activation, FASN/SCD1 and ASCT2 expression: completely abolished
H1299 and U87 cells
  levels of glutamate, ammonia, and α-KG in cells and in cell culture media: dramatically reduced
  glutamine consumption: significant reduction
SREBP activation; CB-839 200 nM
  SREBP activation: SREBP activation inhibited by CB-839
[1]
  ammonia levels in tumor tissues: reduction
[1]; vs vehicle
  SREBP-1 levels in tumors (IHC): significantly reduced

## Cl.N[C@@H](CCC(=O)Nc1ccc([N+](=O)[O-])cc1)C(=O)O [GPNA, gamma-L-Glutamyl-p-nitroanilide Hydrochloride]
SREBP-1/2 cleavage
  pimozide-stimulated SREBP-1 activation, FASN/SCD1 and ASCT2 expression: completely abolished
H1299 and U87 cells
  levels of glutamate, ammonia, and α-KG in cells and in cell culture media: dramatically reduced
  glutamine consumption: significant reduction

## N[C@@H](CCC(=O)N[C@@H](CS)C(=O)NCC(=O)O)C(=O)O [GSH]
U251 cells [2]
  combination treatment-elevated ROS level in mitochondria: reduced the combination treatment-elevated ROS level in mitochondria
U251 cells [3]
  combination-induced cell death: dramatically rescued the combination-induced cell death

## N [ammonia]
SREBP-1/2 cleavage; NH3·H2O 4 mM, after glutamine absence, GPNA or CB-839
  restoration of pimozide-stimulated SREBP-1 activation, FASN/SCD1 and ASCT2 expression: fully restored
SREBP activation; 4 mM
  restoration of SREBP activation and FASN/SCD1 expression inhibited by CB-839: strongly restore SREBP activation
SREBP-1 and -2 cleavage; in the presence of glucose 5 mM, NH4Cl, serum-free
  SREBP-1 and -2 cleavage, FASN and SCD1 expression: induced SREBP-1 and -2 cleavage; also recorded: dose- and time-dependent
SREBP-1 and -2 cleavage
  SREBP-1 translocation into the nucleus: markedly stimulated SREBP-1 translocation into the nucleus

## CC(C)CCC[C@@H](C)[C@H]1CC[C@H]2[C@@H]3CC=C4C[C@@H](O)CC[C@]4(C)[C@H]3CC[C@]12C [cholesterol]
ASCT2
  pimozide treatment-elevated ASCT2 expression: suppressed

## N[C@@H](CCC(=O)O)C(=O)[O-].O.[Na+] [glutamate, L-Glutamic acid monosodium salt monohydrate]
SREBP-1 and -2 cleavage
  SREBP-1 translocation into the nucleus: failed to do so

## C[C@H](O)C(=O)[O-].[Na+] [lactate, sodium L-lactate]
SREBP-1 and -2 cleavage
  SREBP-1 translocation into the nucleus: failed to do so

## O=c1[nH]c2ccccc2n1C1CCN(CCCC(c2ccc(F)cc2)c2ccc(F)cc2)CC1 [pimozide]
[4]
  toxic effects on normal human astrocytes: no toxic effects
GBM30-derived xenograft [5]
  toxicity in mice: toxic
GBM30-derived xenograft [6]
  time of treatment until mice died: 6 to 8 days

## O=C([O-])CCC(=O)C(=O)[O-].[Na+].[Na+] [α-KG, α-Ketoglutaric acid sodium salt]
SREBP-1 and -2 cleavage
  SREBP-1 translocation into the nucleus: failed to do so
